The source of these data is patent US9720005B2, “Immunoassay for compounds of the NBOMe family” (Randox Laboratories Limited, priority 2014, dated 2017).

In one data set the test system is Antibody (RS2708). The data set is described as follows: Competitive ELISA for NBOMe based compounds (Example 13), HRP tracer vs calibrator/cross-reactant. The data set is classed as binding, sheep. The conditions noted are these: for % Cross-reactivity: IC50 25I-NBOMe.HCL/IC50 CR×100; for % CR: relative to 25I-NBOMe.HCl. Here is the method:
IgG was extracted from the antisera using ammonium sulphate/caprylic acid precipitation and the purified antibody was immobilised on a 96 well ELISA plate at 5 μg/ml in 10 mM TRIS buffer, pH 8.5 overnight at 4° C. […] The plate was washed (×3) with TBST and the calibrator (25I-NBOMe.HCL) or potential cross reactants added (50 μl per well), followed by HRP tracer (75 μl/well) to the appropriate wells. The plates were then incubated for 60 minutes at 25° C. […] 125 μL of signal (TMB) was then added to each well for 20 mins at room temperature in the dark. The reaction was stopped by the addition of 125 μl of 0.2 M Sulphuric Acid per well and the plates read immediately at 450 nm. Calibration curves were generated and these were used to determine the sensitivity and specificity of the immunoassay for 25I-NBOMe-HCL and potential cross-reactants. The data are inputted to a computer program called ‘KC Junior’ (Biotek). It gives a 4 parameter fit curve and allows the calculation of concentrations between the standard runs. This program is used to calculate the IC50 values by dividing the 0 ng/ml optical density (OD) value by 2 and obtaining the concentration value from the curve for this OD. The results of this study are presented in Tables 1-3, cross-reactivity being calculated according to the following formula: % CR=IC50 25I-NBOMe.HCL/IC50 CR×100
Wherein % CR is the percentage cross-reactivity, IC50 25I-NBOMe HCL is the concentration of 25I-NBOMe-HCL which causes 50% displacement of signal and IC50 CR is the concentration of potential cross-reactant that causes 50% displacement of signal.
For orientation: In an ELISA, binding on a coated surface is turned into a signal by an enzyme label.

For data set [1] the following is noted: recreational drug use; cited from earlier work.
The conditions of data set [2]: case study of 25I-NBOMe use; cited from earlier work.
The mark [3] stands for this setting: Table 2, antibody coated at 5 μg/ml, HRP tracer at 1/64K.

≈ marks a conversion by molar mass, not a printed value. Structures can show the parent of a compound that is named as a salt.

Consider `COc1cc(CCNCc2ccccc2O)c(OC)cc1N` [25(NH2)-NBOH], for which the “% Cross-reactivity” value in the data set on Antibody (RS2708) (Table 2) was found to be 18.5%. Also, in the data set with Antibody (RS2708) (setting [3]), the “IC50” value was 0.887 ng/mL (≈ 2.93 nM).
The matching figures for `COc1cc(CCNCc2ccccc2OC)c(OC)cc1Br` [25B-NBOMe•HCl, 2-(4-Bromo-2,5-dimethoxyphenyl)-N-[(2-methoxyphenyl)methyl]ethanamine]: 118.8% and 0.138 ng/mL.
On to `COc1cc(CCNCc2ccccc2OC)c(OC)cc1C` [25D-NBOMe•HCl, 2-(2,5-Dimethoxy-4-methylphenyl)-N-[(2-methoxyphenyl)methyl]ethanamine], for which, in the data set on Antibody (RS2708) (Table 2), the “% Cross-reactivity” value is 157.7%. Further, in the data set with Antibody (RS2708) (setting [3]), the “IC50” value amounted to 0.104 ng/mL.
The matching figures for `CCc1cc(OC)c(CCNCc2ccccc2OC)cc1OC` [25E-NBOMe•HCl]: 126.2% and 0.13 ng/mL.
Take `COc1ccc(OC)c(CCNCc2ccccc2OC)c1` [25H-NBOMe•HCl, 2-(2,5-dimethoxyphenyl)-N-(2-methoxybenzyl)ethanamine]: the “% Cross-reactivity” value in the data set on Antibody (RS2708) (Table 2) is 170.8%. Also, the “IC50” value with Antibody (RS2708) (setting [3]) was found to be 0.096 ng/mL.
Take `COc1cc(CCNCc2ccccc2OC)c(OC)cc1I` [25I-NBOMe•HCl, 2-(4-Iodo-2,5-dimethoxyphenyl)-N-[(2-methoxyphenyl)methyl] ethanamine]: the B/Bo is on record as 90.2 with Antibody (RS2708) (Conc. 0.03125 ng/ml, 0 ng/ml = 100.0); 80.2 in the data set on Antibody (RS2708) (Conc. 0.0625 ng/ml, 0 ng/ml = 100.0); 61.3 with Antibody (RS2708) (Conc. 0.125 ng/ml, 0 ng/ml = 100.0); 33.4 in the data set on Antibody (RS2708) (Conc. 0.25 ng/ml, 0 ng/ml = 100.0); 14.7 with Antibody (RS2708) (Conc. 0.5 ng/ml, 0 ng/ml = 100.0); 7.6 in the data set with Antibody (RS2708) (Conc. 1 ng/ml, 0 ng/ml = 100.0). The molecule also registered a B/Bo in the data set with Antibody (RS2708) (Conc. 2 ng/ml, 0 ng/ml = 100.0) of 5.3. In addition, the IC50 in the data set on Antibody (RS2708) (Table 1, antibody coated at 5 μg/ml, HRP tracer at 1/64K) turned out to be 0.164 ng/mL; in the data set with Antibody (RS2708) (setting [3]) it was 0.164 ng/mL. Also, the “% Cross-reactivity” value with Antibody (RS2708) (Table 2) is reported as 100%.
Turning to `COc1cc([N+](=O)[O-])c(OC)cc1CCNCc1ccccc1OC` [25N-NBOMe•HCl, N-(2-Methoxybenzyl)-2-(2,5-dimethoxy-4-nitrophenyl)ethylamine], the “% Cross-reactivity” value in the data set with Antibody (RS2708) (Table 2) stood at 115.5%. Besides, the “IC50” value in the data set on Antibody (RS2708) (setting [3]) was 0.142 ng/mL.
With `CCCc1cc(OC)c(CCNCc2ccccc2OC)cc1OC` [25P-NBOMe•HCl], the “% Cross-reactivity” value with Antibody (RS2708) (Table 2) worked out at 111.6%. Moreover, the “IC50” value with Antibody (RS2708) (setting [3]) amounted to 0.147 ng/mL.
The matching figures for `CCSc1cc(OC)c(CCNCc2ccccc2OC)cc1OC.Cl` [25T2-NBOMe•HCl]: 120.6% and 0.136 ng/mL.
The corresponding values for `COc1cc(SC(C)C)c(OC)cc1CCNCc1ccccc1OC` [25T4-NBOMe•HCl] are 118% and 0.139 ng/mL.
With `CCCSc1cc(OC)c(CCNCc2ccccc2OC)cc1OC` [25T7-NBOMe•HCl], in the data set with Antibody (RS2708) (Table 2), the “% Cross-reactivity” value worked out at 118%. The “IC50” value in the data set with Antibody (RS2708) (setting [3]) was 0.139 ng/mL.
`COc1cc(CCN)c(OC)cc1Br` [Compound 2C-B]: in the data set with Antibody (RS2708) (Table 4, samples @ 100 ng/ml), the B/Bo was 89.9, the IC50 is reported as over 100 and the “% CR” value is under 0.16%.
The corresponding values for `CCc1cc(OC)c(CCN)cc1OC` [Compound 2C-E] are 92.2, over 100 and under 0.16%.
In the case of `COc1cc(CCN)c(OC)cc1I` [Compound 2C-I], in the data set on Antibody (RS2708) (Table 4, samples @ 100 ng/ml), the B/Bo worked out at 88.8, the IC50 is over 100 and the “% CR” value is reported as under 0.16%. Further, the dose result in data set [1] was “around 20 milligrams”.
In the case of `COc1cc(CCNCc2ccccc2OC)c(OC)cc1I` [Compound 25I-NBOMe, 2-(4-Iodo-2,5-dimethoxyphenyl)-N-[(2-methoxyphenyl)methyl] ethanamine], the dose entry in data set [1] was “less than one milligram”. Also, in data set [2], the Clinical features result is “tachycardia, hypertension, agitation, aggression, visual and auditory hallucinations, seizures, hyperplexia, clonus, elevated white cell count, elevated creatine kinase, metabolic acidosis and acute kidney injury”.
In the case of `COc1cc([N+](=O)[O-])c(OC)cc1CCNCc1ccccc1O` [Compound 25N-NBOH], in the data set with Antibody (RS2708) (Table 2), the “% Cross-reactivity” value is 26.7%. The “IC50” value with Antibody (RS2708) (setting [3]) amounted to 0.615 ng/mL (≈ 1.85 nM).
As to `COc1cc(CC(C)N)c(OC)cc1Br` (stereo not shown) [DOB, 2,5-Dimethoxy-4-bromoamphetamine], in the data set with Antibody (RS2708) (Table 4, samples @ 100 ng/ml), the B/Bo is on record as 91.8, the IC50 is recorded as over 100 and the “% CR” value is under 0.16%.
Turning to `COc1ccccc1CNCCc1cc(OC)c(OC)c(OC)c1.Cl` [Mescaline-NBOMe•HCl], the “% Cross-reactivity” value in the data set on Antibody (RS2708) (Table 2) is reported as 164%. Besides, the “IC50” value in the data set with Antibody (RS2708) (setting [3]) was 0.1 ng/mL.
